In US20220273759A1, “PHARMACEUTICAL ASSOCIATION FOR CONVERTING A NEOPLASTIC CELL INTO A NON-NEOPLASTIC CELL AND USES THEREOF” (HISTIDE AG, priority 2015, published 2022):

Assays:
[1] = test system: mesenchymal chondrosarcoma cells; experiment: Recoding via quantification of pRB and P53, chondrosarcoma cells; type: cell-based; settings: Table 6, peptide in association with PET
Procedure: (§1) The cells were first fixed for 20 min with 4% paraformaldehyde/PBS at 4° C. After fixation, the cells were permeabilized in PBS containing 1% Triton X-100 for 15 min. Protein immunofluorescent visualization was performed by first treating the cells with 1% (v/v) specific monoclonal antibodies for 1 hour at 37° C. Then the samples were incubated with Alexa Fluor® 568 or 647 (F(ab′)2 fragment of IgG(H+L)) during 30 min at room temperature. The cell nuclei were counterstained in 20 ng/mL DAPI for 10 min at room temperature.
(§2) For this type of quantification the freeware image analysis ImageJ® software was used. The raw image was first converted to an 8-bit file, and then the unsharp mask feature was used (settings 1:0.2) to remove the image background (rolling ball radius 10). After smoothing, the resulting image, which appears similar to the original photomicrograph but with minimal background, was then converted to a binary image by setting a threshold. Threshold values were determined empirically by selecting a setting, which gave the most accurate binary image for a subset of randomly selected photomicrographs. The cell area was determined by manual delineation on raw fluorescent images. Total contact area and mean contact area per cell were calculated by “analyse particules” in ImageJ®. A minimum of 50 cells per condition were analyzed. […]

[2] = test system: human rhabdosarcoma cells; experiment: Recoding via quantification of pRB and P53, rhabdosarcoma cells; type: cell-based; settings: Table 6, peptide in association with PET
Procedure: as §1, §2

Vinculin = Vinculin gene expression by RT-PCR in osteosarcoma cells; type: cell-based; settings: PET carrier, after 24 hours
Procedure: (§3) After 24 hours of culture, total RNA was extracted by using the RNeasy total RNA kit (Qiagen®) according to the manufacturer's instructions. Purified total RNA was used as a template in order to make cDNA by a reverse transcription reaction (Gibco Brl®) with random primers (Invitrogen®). The cDNA was then used as a template for a real-time PCR amplification in the presence of SYBR green reagents (Bio-Rad®) by using a thermocycler (iCycler, Biorad®). Data were analyzed with the iCycler IQ™® software and compared by the ΔΔCt method. Briefly, the mean Ct value of the target gene was normalized to its averaged Ct values of the housekeeping gene (GAPDH) to give a ΔCt value, which was then normalized to a control sample to obtain a ΔΔCt value. The results were obtained from two series of experiments performed in triplicate.
(§4) Neoplastic cells (in this example osteosarcoma cells) were cultured on pharmaceutical associations comprising PET as a bioactive carrier and one of GFR-binding compounds of SEQ ID NO: 12, 19, 30 or 39. After 24 hours, the Paxillin and Vinculin gene expression decreased as shown by RT-PCR (FIG. 9).

[3] = Adhesion checkpoint activation, western blot of PDK1 in osteosarcoma cells; type: cell-based; settings: PET carrier, after 24 hours
Procedure: (§5) After 24 hours of culture, cells were permeabilized (10% SDS, 25 mM NaCl, 10 nM pepstatin and 10 nM leupeptin in distilled water and loading buffer), boiled for 10 minutes and resolved by reducing PAGE (Invitrogen). Proteins were transferred onto nitrocellulose, blocked, and labeled with HRP-conjugated antibodies (Invitrogen). […] Phosphor-Smad1/5/8 was blotted by treating the nitrocellulose with monoclonal anti-p-Smad1/5/8 (Santa Cruz Biotechnology). For all of the experiments the western blot was performed in triplicate, along with an additional blot for actin and coomassie blue staining to ensure constant protein load among samples.
(§6) Neoplastic cells (in this example osteosarcoma cells) were cultured on pharmaceutical associations comprising PET as a bioactive carrier and one of GFR-binding compounds of SEQ ID NO: 12, 19, 30 or 39. The main signaling pathways include: Ras/MAP kinase, FAK/Src kinase and PIP2 which are decreased after 24 hours as shown by western blot quantifications (FIG. 8). […] Finally, a decrease of 3-phosphoinositide-dependent protein kinase 1 (PDK1) protein expression was also was observed (FIG. 8C).

Paxillin = Paxillin gene expression by RT-PCR in osteosarcoma cells; type: cell-based; settings: PET carrier, after 24 hours
Procedure: as §3, §4

[4] = test system: Cyclin D (Cyclin D1, Cyclin D2 and Cyclin D3); experiment: Cyclin D profile by RT-PCR in osteosarcoma cells; type: cell-based; settings: PET carrier, after the first 30 min of cell culture
From the text: There are many ways to test, measure and represent the inhibitory effect of a given substance on the gene or protein expression of cyclins D, but for the purpose of the present disclosure, and for the avoidance of any doubts, the inhibition values of a given pharmaceutical association or composition as defined herein is a measure of the gene expression of cyclins D as provided by RT-PCR. It is to be understood that the values of the gene expression of cyclins D disclosed herein correspond to the total gene expression of all cyclins D present in the tested cell i.e. D1, D2 and D3 as known at the date of the present disclosure.
as §3
Neoplastic cells (in this example osteosarcoma cells) were cultured on pharmaceutical associations comprising PET as a bioactive carrier and one of GFR-binding compounds of SEQ ID NO: 12, 19, 30 or 39. […]

Ras/MAP kinase = experiment: Adhesion checkpoint activation, western blot of ERK phosphorylation in osteosarcoma cells; type: cell-based; settings: PET carrier, after 24 hours
Procedure: as §5, §6

[5] = Stability of non-covalent association (release of FITC-labelled GFR-binding compound from carrier); type: physicochemical; settings: after 3, 7 or 10 days
Procedure: Non-covalent associations of the bioactive carriers were performed under atmospheric conditions (air) at room temperature (about 22° C.). The non-covalent association was carried out using a mixture of GFR-binding compound of SEQ ID NO: 9 (concentration of 1×10^−3 M) with the apatite ceramics or a mixture of GFR-binding compound of SEQ ID NO: 10 (concentration of 1×10^−3 M) with the type-I collagen sponge. The non-covalent pharmaceutical associations were characterized by covalently associating fluorescent GFR-binding compounds of SEQ ID NO: 9 and 10 (covalently bound to fluorescein isothiocyanate (FITC), FIG. 1).

[6] = test system: human adenocarcinoma cells; experiment: Recoding via quantification of pRB and P53, adenocarcinoma cells; type: cell-based; settings: Table 6, peptide in association with PET
Procedure: as §1, §2

KIPKASSTPTRLSPISMLFI (Non-cyclic GFR-binding peptide) [SEQ ID NO: 221]
P53 (%) [1]: 37% | pRB (%) [1]: 21%

RVPSTSSTQVDLNAISVLYF (Non-cyclic GFR-binding peptide) [SEQ ID NO: 217]
P53 (%) [2]: 24% | pRB (%) [2]: 18%

SEQ ID NO: 30: GFR-binding compound of the sequence listing, tested on PET as bioactive carrier; sequence not shown in this part (KIPKASSVPTELEPLPIVYY; Non-cyclic GFR-binding peptide)
Vinculin gene expression (Vinculin): decreased | 3-phosphoinositide-dependent protein kinase 1 (PDK1) protein expression [3]: decrease | Paxillin gene expression (Paxillin): decreased | Cyclin D gene expression (arithmetic mean of Cyclin D1, D2 and D3) [4]: decreased | phosphorylation at Thr202 and Tyr204 on ERK (Ras/MAP kinase): absence of phosphorylation

KIPKASSTQVRLRPVQIRKI (Non-cyclic GFR-binding peptide) [SEQ ID NO: 211]
P53 (%) [2]: 42% | pRB (%) [2]: 19%

STPPTSSVPTEVSPINTLYF (Non-cyclic GFR-binding peptide) [SEQ ID NO: 224]
P53 (%) [1]: 26% | pRB (%) [1]: 13%

SEQ ID NO: 9: GFR-binding compound of the sequence listing, non-covalently associated with apatite ceramics; sequence not shown in this part (AVPKASSAPTKLSAISMLYL; Non-cyclic GFR-binding peptide)
release of GFR-binding compounds from the carrier [5]: no significant release

AASKASSTPTDLNAISTLYF (Non-cyclic GFR-binding peptide) [SEQ ID NO: 216]
P53 (%) [2]: 27% | pRB (%) [2]: 19%

SEQ ID NO: 19: GFR-binding compound of the sequence listing, tested on PET as bioactive carrier; sequence not shown in this part (RKIPKAGGVPTELSAISTLYL; Non-cyclic GFR-binding peptide)
Vinculin gene expression (Vinculin): decreased | 3-phosphoinositide-dependent protein kinase 1 (PDK1) protein expression [3]: decrease | Paxillin gene expression (Paxillin): decreased | Cyclin D gene expression (arithmetic mean of Cyclin D1, D2 and D3) [4]: decreased | phosphorylation at Thr202 and Tyr204 on ERK (Ras/MAP kinase): absence of phosphorylation

STPPTSSVSQKMKPLSILYV (Non-cyclic GFR-binding peptide) [SEQ ID NO: 228]
P53 (%) [6]: 26% | pRB (%) [6]: 18%

SEQ ID NO: 12: GFR-binding compound of the sequence listing, tested on PET as bioactive carrier; sequence not shown in this part (KVPKASSVPTELSAISTLYL; Non-cyclic GFR-binding peptide)
Vinculin gene expression (Vinculin): decreased | 3-phosphoinositide-dependent protein kinase 1 (PDK1) protein expression [3]: decrease | Paxillin gene expression (Paxillin): decreased | Cyclin D gene expression (arithmetic mean of Cyclin D1, D2 and D3) [4]: decreased | phosphorylation at Thr202 and Tyr204 on ERK (Ras/MAP kinase): absence of phosphorylation

KIPKASSSRVRLSSLSTLFF (Non-cyclic GFR-binding peptide) [SEQ ID NO: 215]
P53 (%) [2]: 30% | pRB (%) [2]: 19%

GIPEPSSVSQEESSLSTLFF (Non-cyclic GFR-binding peptide) [SEQ ID NO: 214]
P53 (%) [2]: 31% | pRB (%) [2]: 18%

AASKASSVPQRLRSVKVAKV (Non-cyclic GFR-binding peptide) [SEQ ID NO: 235]
P53 (%) [6]: 40% | pRB (%) [6]: 26%

RVPSTSSTQVKMSAISMLYL (Non-cyclic GFR-binding peptide) [SEQ ID NO: 213]
P53 (%) [2]: 26% | pRB (%) [2]: 12%

KIPKASSVSQQLEPISTLYL (Non-cyclic GFR-binding peptide) [SEQ ID NO: 223]
P53 (%) [1]: 29% | pRB (%) [1]: 9%

SEQ ID NO: 39: GFR-binding compound of the sequence listing, tested on PET as bioactive carrier; sequence not shown in this part (KIPKASSVPTELEPLPILYF; Non-cyclic GFR-binding peptide)
Vinculin gene expression (Vinculin): decreased | 3-phosphoinositide-dependent protein kinase 1 (PDK1) protein expression [3]: decrease | Paxillin gene expression (Paxillin): decreased | Cyclin D gene expression (arithmetic mean of Cyclin D1, D2 and D3) [4]: decreased | phosphorylation at Thr202 and Tyr204 on ERK (Ras/MAP kinase): absence of phosphorylation

GIPEPSSAPVEEEPLTTLYY (Non-cyclic GFR-binding peptide) [SEQ ID NO: 232]
P53 (%) [6]: 21% | pRB (%) [6]: 13%

KIPKASSVPTKMKPLSVLYV (Non-cyclic GFR-binding peptide) [SEQ ID NO: 226]
P53 (%) [6]: 31% | pRB (%) [6]: 16%

AASKASSVPEKMRPVQTRKI (Non-cyclic GFR-binding peptide) [SEQ ID NO: 237]
P53 (%) [6]: 42% | pRB (%) [6]: 22%

STPPTSSSRVQLSAISMLYL (Non-cyclic GFR-binding peptide) [SEQ ID NO: 212]
P53 (%) [2]: 27% | pRB (%) [2]: 11%

STPPTSSTPTKMSNITTQIM (Non-cyclic GFR-binding peptide) [SEQ ID NO: 233]
P53 (%) [6]: 43% | pRB (%) [6]: 23%

RVPSTSSVPAEESNITVQIM (Non-cyclic GFR-binding peptide) [SEQ ID NO: 234]
P53 (%) [6]: 45% | pRB (%) [6]: 22%

RVPSTSSAPTKMKPLSMLYV (Non-cyclic GFR-binding peptide) [SEQ ID NO: 227]
P53 (%) [6]: 32% | pRB (%) [6]: 14%

GIPEPSSAPVDMRPVQIRKI (Non-cyclic GFR-binding peptide) [SEQ ID NO: 238]
P53 (%) [6]: 40% | pRB (%) [6]: 23%

GIPEPSSVSQELSATSMLYY (Non-cyclic GFR-binding peptide) [SEQ ID NO: 218]
P53 (%) [1]: 28% | pRB (%) [1]: 17%

KIPKASSTQVGQSATSILYY (Non-cyclic GFR-binding peptide) [SEQ ID NO: 219]
P53 (%) [1]: 31% | pRB (%) [1]: 14%

GIPEPSSAPTRLEPISMLYL (Non-cyclic GFR-binding peptide) [SEQ ID NO: 222]
P53 (%) [1]: 36% | pRB (%) [1]: 8%

AASKASSSRVELRSVKIAKV (Non-cyclic GFR-binding peptide) [SEQ ID NO: 210]
P53 (%) [2]: 42% | pRB (%) [2]: 22%

STPPTSSAPVGQSPISMLYI (Non-cyclic GFR-binding peptide) [SEQ ID NO: 220]
P53 (%) [1]: 34% | pRB (%) [1]: 15%
